Measurements taken from US20240158446A1, “CYCLIC COMPOUND HAVING SELECTIVE INHIBITORY ACTION ON KRAS OVER HRAS AND NRAS” (CHUGAI SEIYAKU KABUSHIKI KAISHA, priority 2021, published 2024).
Where two headings read alike, the source gives them in different places.

What was measured:
[1] = target: GDP-bound HRAS wild-type protein (Homo sapiens, UniProt P01112); test: Binding to HRAS by surface plasmon resonance (SPR), Single Cycle Kinetics; details: for HRAS/KRAS (ratio of KD value for HRAS to KD value for KRAS): SPR, GDP-bound HRAS wild-type protein vs GDP-bound KRAS wild-type protein; for HRAS/KRAS (ratio of KD value with respect to GDP-bound HRAS wild-type protein to KD value with respect to KRAS): SPR KD ratio HRAS/KRAS, class symbols
[2] = tested on: human lung cancer strain NCI-H441;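 note: cell proliferation inhibition after four days measured by CellTiter-Glo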
[3] = target: GDP-bound NRAS wild-type protein (Homo sapiens, UniProt P01111); test: Binding to NRAS by surface plasmon resonance (SPR), Single Cycle Kinetics; details: for NRAS/KRAS (ratio of KD value for NRAS to KD value for KRAS): SPR, GDP-bound NRAS wild-type protein vs GDP-bound KRAS wild-type protein; for NRAS/KRAS (ratio of KD value with respect to GDP-bound NRAS wild-type protein to KD value with respect to KRAS): SPR KD ratio NRAS/KRAS, class symbols
[4] = target: GDP-bound KRAS wild-type protein (Homo sapiens, UniProt P01116); test: Binding to KRAS by surface plasmon resonance (SPR), Single Cycle Kinetics; details: GDP-bound KRAS wild-type protein
[5] = SPR, Single Cycle Kinetics, read-out: KRAS KD
[6] = SPR Single Cycle Kinetics, 1:1 binding model, read-out: KRAS KD
[7] = SPR, Single Cycle Kinetics, 1:1 binding model, read-out: KRAS KD

GDP-bound HRAS wild-type protein, sequence (P01112 whole entry): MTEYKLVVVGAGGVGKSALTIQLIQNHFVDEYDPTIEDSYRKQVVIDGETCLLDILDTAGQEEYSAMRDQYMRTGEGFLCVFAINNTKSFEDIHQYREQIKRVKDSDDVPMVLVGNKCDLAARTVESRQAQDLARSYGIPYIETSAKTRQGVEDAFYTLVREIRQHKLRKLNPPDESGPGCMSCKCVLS
GDP-bound KRAS wild-type protein, sequence (P01116 whole entry): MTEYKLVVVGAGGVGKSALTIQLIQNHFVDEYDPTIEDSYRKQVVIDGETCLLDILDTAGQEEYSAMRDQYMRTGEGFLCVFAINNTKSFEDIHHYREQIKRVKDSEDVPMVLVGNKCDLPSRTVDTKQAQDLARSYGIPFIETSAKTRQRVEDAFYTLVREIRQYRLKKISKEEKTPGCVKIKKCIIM
GDP-bound NRAS wild-type protein, sequence (P01111 whole entry): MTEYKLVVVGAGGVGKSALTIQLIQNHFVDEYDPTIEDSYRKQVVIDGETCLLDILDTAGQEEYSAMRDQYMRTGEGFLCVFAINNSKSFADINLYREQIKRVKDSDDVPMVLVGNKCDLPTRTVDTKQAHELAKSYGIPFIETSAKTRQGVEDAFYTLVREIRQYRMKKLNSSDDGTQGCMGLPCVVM

SMILES	HRAS/KRAS (ratio of KD value for HRAS to KD value for KRAS) [1]	IC50 [2]	NRAS/KRAS (ratio of KD value for NRAS to KD value for KRAS) [3]	Kd [4, 5]	HRAS/KRAS (ratio of KD value with respect to GDP-bound HRAS wild-type protein to KD value with respect to KRAS) [1]	NRAS/KRAS (ratio of KD value with respect to GDP-bound NRAS wild-type protein to KD value with respect to KRAS) [3]	Kd [4, 6]	HRAS/KRAS (ratio of KD value for HRAS to KD value for KRAS) ([1]; KD ratio class)	NRAS/KRAS (ratio of KD value for NRAS to KD value for KRAS) ([3]; KD ratio class)	Kd [4, 7]	Kd ([4]; KRAS KD (M), SPR Single Cycle Kinetics, 1:1 binding model)
CCO[C@@H]1C[C@H]2C(=O)NC3(CCC3)C(=O)N(C)[C@@H](C3CCCC3)C(=O)N(C)[C@H](C(=O)N(C)C)CC(=O)N(C)[C@@H](CC3CCC3)C(=O)N[C@@H]([C@@H](C)CC)C(=O)N(C)CC(=O)N(C)[C@H]3C/C=C\CCN(C3=O)[C@@H](Cc3ccc(C(F)(F)F)cc3)C(=O)N(C)CC(=O)N[C@@H](CCc3cc(F)c(C(F)(F)F)c(F)c3)C(=O)N2C1 [PP1118, (2S,8S,12R,14S,20S,23S,27S,30S,36S,38Z)-27-(cyclobutylmethyl)-20-cyclopentyl-8-[2-[3,5-difluoro-4-(trifluoromethyl)phenyl]ethyl]-12-ethoxy-N,N,4,19,22,26,32,35-octamethyl-30-[(1S)-1-methylpropyl]-3,6,9,15,18,21,25,28,31,34,42-undecaoxo-2-[[4-(trifluoromethyl)phenyl]methyl]spiro[1,4,7,10,16,19,22,26,29,32,35-undecazatricyclo[34.5.1.0^10,14]dotetracont-38-ene-17,1′-cyclobutane]-23-carboxamide]	B (a compound having 3 or more and less than 10 is denoted as B)	6.5 nM	A (a compound having 10 or more and less than 20 is denoted as A)	5.6e-11 M							
CCC[C@H]1C(=O)N[C@@H]([C@@H](C)CC)C(=O)N2CCC[C@H]2C(=O)N(C)[C@H]2C/C=C\CCN(C2=O)[C@@H](Cc2ccc(C)cc2)C(=O)N(C)CC(=O)N[C@@H](CCc2ccc(Cl)c(Cl)c2)C(=O)N2C[C@H](OC(C)C)C[C@H]2C(=O)NC2(CC(C)(C)C2)C(=O)N(C)[C@@H](C(CC)CC)C(=O)N(C)[C@H](C(=O)N(C)C)CC(=O)N1C [PP2641]		98.6 nM			A (a compound having 10 or more and less than 20 is denoted as A)	AA (a compound having 20 or more is denoted as AA)	2e-09 M				
CCOC[C@H]1C(=O)N[C@@H]([C@@H](C)CC)C(=O)N(C)CC(=O)N(C)[C@H]2C/C=C\CCN(C2=O)[C@@H](Cc2ccc(C(F)(F)F)cc2)C(=O)N(C)CC(=O)N[C@@H](CCc2ccc(Cl)c(Cl)c2)C(=O)N2C[C@H](OCC)C[C@H]2C(=O)NC2(CC(C)(C)C2)C(=O)N(C)[C@@H](CC(C)(C)C)C(=O)N(C)[C@H](C(=O)N(C)C)CC(=O)N1C [PP2740]		24.2 nM			A (a compound having 10 or more and less than 20 is denoted as A)	AA (a compound having 20 or more is denoted as AA)	1.7e-10 M				
CCO[C@@H]1C[C@H]2C(=O)NC3(CCC3)C(=O)N(C)[C@@H](C(CC)CC)C(=O)N(C)[C@H](C(=O)N(C)C)CC(=O)N(C)[C@@H](CC3CC3)C(=O)N[C@@H]([C@@H](C)CC)C(=O)N(C)CC(=O)N(C)[C@H]3C/C=C\CCN(C3=O)[C@@H](Cc3ccc(C(F)(F)F)cc3)C(=O)N(C)CC(=O)N[C@@H](CCc3ccc(Cl)c(Cl)c3)C(=O)N2C1 [PP1219]		21.4 nM						A (a compound having 10 or more and less than 20 is denoted as A)	AA (a compound having 20 or more is denoted as AA)	3.5e-10 M	
CCO[C@@H]1C[C@H]2C(=O)NC3(CCCCC3)C(=O)N(C)[C@@H](C3CCCC3)C(=O)N(C)[C@H](C(=O)N(C)C)CC(=O)N(C)[C@@H](CC)C(=O)N[C@@H]([C@@H](C)CC)C(=O)N(C)CC(=O)N(C)[C@H]3C/C=C\CCN(C3=O)[C@@H](Cc3ccc(C(F)(F)F)cc3)C(=O)N(C)CC(=O)N[C@@H](CCc3cc(F)c(C(F)(F)F)c(F)c3)C(=O)N2C1 [PP1277]		79.8 nM						A (a compound having 10 or more and less than 20 is denoted as A)	A (a compound having 10 or more and less than 20 is denoted as A)	2.5e-10 M	
CCC[C@H]1C(=O)N[C@@H]([C@@H](C)CC)C(=O)N(C2CC2)CC(=O)N(C)[C@H]2C/C=C\CCN(C2=O)[C@@H](Cc2ccc(C)cc2)C(=O)N(C)CC(=O)N[C@@H](CCc2ccc(Cl)c(Cl)c2)C(=O)N2C[C@H](OC(C)C)C[C@H]2C(=O)NC2(CC(C)(C)C2)C(=O)N(C)[C@@H](C2CCCC2)C(=O)N(C)[C@H](C(=O)N(C)C)CC(=O)N1C [PP2571]		76.1 nM			A (a compound having 10 or more and less than 20 is denoted as A)	A (a compound having 10 or more and less than 20 is denoted as A)	1e-09 M				
CCO[C@@H]1C[C@H]2C(=O)NC3(CC(C)(C)C3)C(=O)N(C)[C@@H](C3CCCC3)C(=O)N(C)[C@H](C(=O)N(CC)CC)CC(=O)N(C)[C@@H](CC)C(=O)N[C@@H]([C@@H](C)CC)C(=O)N(C)CC(=O)N(C)[C@H]3C/C=C\CCN(C3=O)[C@@H](Cc3ccc(C(F)(F)F)cc3)C(=O)N(C)CC(=O)N[C@@H](CCc3cc(F)c(C(F)(F)F)c(F)c3)C(=O)N2C1 [PP1580]		9.7 nM						A (a compound having 10 or more and less than 20 is denoted as A)	A (a compound having 10 or more and less than 20 is denoted as A)	1.7e-10 M	
CCCOC[C@H]1C(=O)N[C@@H]([C@@H](C)CC)C(=O)N2CCC[C@H]2C(=O)N(C)[C@H]2C/C=C\CCN(C2=O)[C@@H](Cc2ccc(C)cc2)C(=O)N(C)CC(=O)N[C@@H](CCc2ccc(C(F)(F)F)c(OC)c2)C(=O)N2C[C@@H](C)C[C@H]2C(=O)N(C)C2(CCC2)C(=O)N(C)[C@@H](C2CCCC2)C(=O)N(C)[C@H](C(=O)N(C)C)CC(=O)N1C [PP2369]	B (a compound having 3 or more and less than 10 is denoted as B)	4.5 nM	A (a compound having 10 or more and less than 20 is denoted as A)	6.2e-11 M							
CCC[C@H]1C(=O)N[C@@H]([C@@H](C)CC)C(=O)N(C)CC(=O)N(C)[C@H]2C/C=C\CCN(C2=O)[C@@H](Cc2ccc(C(F)(F)F)cc2)C(=O)N(C)CC(=O)N[C@@H](CCc2cc(Cl)c3c(ccn3C)c2)C(=O)N2C[C@H](OCC)C[C@H]2C(=O)NC2(CC(C)(C)C2)C(=O)N(C)[C@@H](C(CC)CC)C(=O)N(C)[C@H](C(=O)N(C)C)CC(=O)N1C [PP2896]		79.3 nM			A (a compound having 10 or more and less than 20 is denoted as A)	A (a compound having 10 or more and less than 20 is denoted as A)					2.8e-09 M
CCO[C@@H]1C[C@H]2C(=O)NC3(CCC3)C(=O)N(C)[C@@H](C3CCCC3)C(=O)N(C)[C@H](C(=O)N(C)C)CC(=O)N(C)[C@@H](CC3CC3)C(=O)N[C@@H]([C@@H](C)CC)C(=O)N(C)CC(=O)N(C)[C@H]3C/C=C\CCN(C3=O)[C@@H](Cc3ccc(C(F)(F)F)cc3)C(=O)N(C)CC(=O)N[C@@H](CCc3ccc(C(F)(F)F)c(OC)c3)C(=O)N2C1 [PP1247, (2S,8S,12R,14S,20S,23S,27S,30S,36S,38Z)-20-cyclopentyl-27-(cyclopropylmethyl)-12-ethoxy-8-[2-[3-methoxy-4-(trifluoromethyl)phenyl]ethyl]-N,N,4,19,22,26,32,35-octamethyl-30-[(1S)-1-methylpropyl]-3,6,9,15,18,21,25,28,31,34,42-undecaoxo-2-[[4-(trifluoromethyl)phenyl]methyl]spiro[1,4,7,10,16,19,22,26,29,32,35-undecazatricyclo[34.5.1.0^10,14]dotetracont-38-ene-17,1′-cyclobutane]-23-carboxamide]		6.4 nM						A (a compound having 10 or more and less than 20 is denoted as A)	A (a compound having 10 or more and less than 20 is denoted as A)	4.6e-11 M	
CCC[C@H]1C(=O)N[C@@H]([C@@H](C)CC)C(=O)N(C)CC(=O)N(C)[C@H]2C/C=C\CCN(C2=O)[C@@H](Cc2ccc(C(F)(F)F)cc2)C(=O)N(C)CC(=O)N[C@@H](CCc2cc(F)c(Cl)c(F)c2)C(=O)N2C[C@H](OCC)C[C@H]2C(=O)NC2(CCC2)C(=O)N(C)[C@@H](C(CC)CC)C(=O)N(C)[C@H](C(=O)N(C)C)CC(=O)N1C [PP1231]		23.1 nM						A (a compound having 10 or more and less than 20 is denoted as A)	AA (a compound having 20 or more is denoted as AA)	5.6e-10 M	
CC[C@H](C)[C@@H]1NC(=O)[C@H](COC)N(C)C(=O)C[C@@H](C(=O)N(CC)CC)N(C)C(=O)[C@H](C2CCCC2)N(C)C(=O)C2(CC(C)(C)C2)NC(=O)[C@@H]2C[C@H](C)CN2C(=O)[C@H](CCc2ccc(C(F)(F)F)c(Cl)c2)NC(=O)CN(C)C(=O)[C@H](Cc2ccc(C)cc2)N2CC/C=C\C[C@@H](C2=O)N(C)C(=O)CN(C)C1=O [PP2399]	A (a compound having 10 or more and less than 20 is denoted as A)	7.7 nM	AA (a compound having 20 or more is denoted as AA)	3.1e-10 M							
